Measurements reported in US20070270462A1, “8-hydroxyquinoline compounds for treating a polyglutamine (polyQ)-expansion disease” (priority 2005, published 2007).

Tested on: Htt exon1-Q103-egfp mRNA
Assay: Northern analysis of Htt exon1-Q103-egfp mRNA
Format: cell-based
Conditions: Northern analysis after 48 hrs of transfection
Description: Trizol reagent (Invitrogen, Carlsbad, Calif.) was used to isolate total RNA. Ten μg of total RNA was electrophoresed through 1.25% w/v agarose gel and transferred onto Hybond N+membrane. The membrane was baked in an 80° C. oven for 15 min and UV-crosslinked. Exon 1 of htt containing 103 CAA/CAG-repeats was used as a probe for northern blot detection according to AlkPhos Direct Labeling and Detection System (Amersham Biosciences, Piscataway, N.J.). One hundred ng of the probe was hybridized to the membrane in a 60° C. rotating hybridization oven overnight. The membrane was scanned using the Typhoon 9410 digital scanner (Amersham Biosciences, Piscataway, N.J.) to yield the signal image. The experiment was performed three times and band intensities were averaged.
In examining potential mechanisms for the effects of CQ on Htt accumulation, we considered the possibilities that CQ might act to inhibit Htt aggregation or directly influence Htt synthesis or degradation. […] Therefore, we focused on the aspects of Htt synthesis and turnover. To determine whether CQ might down-regulate polyQ-Htt expression at the transcriptional level, we examined the amount of Htt^exon1-Q103-egfp mRNA present after 48 hrs of transfection by Northern analysis. […]

How did the “effect on Htt exon1-Q103-egfp mRNA levels” value turn out when `Oc1c(I)cc(Cl)c2cccnc12` [CQ, 5-chloro-7-iodo-8-hydroxy-quinoline] was run?
Its value is “no significant effect”.
